Assay results published in patent US12600709B2, “Nonpeptide somatostatin type 5 receptor agonists and uses thereof” (Crinetics Pharmaceuticals, Inc., priority 2019, dated 2026).
Like-named read-outs stand apart in the source and are kept apart here.

Target: T1, human somatostatin receptor subtype 5 (Homo sapiens, UniProt P35346)
T1 construct: expressed in transfected cells
Assay: cAMP assay for SST5R (inhibition of cAMP in CHO-K1 cells)
Format: cell-based
Conditions: inhibition of cAMP via human SST5 receptor, read-out: SST5 potency
How it was run: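 CHO-K1 cells stably expressing human SSTR5 were treated 20 min at 37 °C with compounds plus 1.6 μM NKH477 in HBSS, 0.5 mM HEPES pH 7.4, 0.1% BSA, 0.2 mM IBMX. Lysate cAMP measured by HTRF against a standard curve; EC50 from cAMP-versus-concentration plots.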

T1 sequence (P35346 whole entry): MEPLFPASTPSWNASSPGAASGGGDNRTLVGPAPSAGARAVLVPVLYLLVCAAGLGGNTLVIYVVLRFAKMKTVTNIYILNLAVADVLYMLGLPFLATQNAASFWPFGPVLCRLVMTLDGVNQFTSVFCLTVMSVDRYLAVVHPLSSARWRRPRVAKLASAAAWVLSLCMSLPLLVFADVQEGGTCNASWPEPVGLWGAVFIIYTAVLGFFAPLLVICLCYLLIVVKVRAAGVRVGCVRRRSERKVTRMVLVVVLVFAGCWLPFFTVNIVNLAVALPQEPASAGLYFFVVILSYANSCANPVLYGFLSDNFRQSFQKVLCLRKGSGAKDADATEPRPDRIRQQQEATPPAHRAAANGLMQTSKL

EC50 (Table A) [nM]	EC50 (Table B) [nM]	Structure (SMILES)
< 10		C[C@H](NC(=O)c1cnc(C#N)c(-c2cc(F)cc(Cl)c2)c1N1C[C@@H](N)[C@H](F)C1)C1CC1 [1-138, 4-[(3R,4R)-3-amino-4-fluoropyrrolidin-1-yl]-5-(3-chloro-5-fluorophenyl)-6-cyano-N-[(1S)-1-cyclopropylethyl]pyridine-3-carboxamide]
< 10		Cc1cccc2[nH]c(-c3cncc(C(=O)Nc4ccccc4)c3N3CC[C@](C)(N)C3)nc12 [2-6, 4-[(3S)-3-amino-3-methylpyrrolidin-1-yl]-5-(4-methyl-1H-1,3-benzodiazol-2-yl)-N-phenylpyridine-3-carboxamide]
< 10		N#Cc1ncc(C(=O)NC2CCCC2)c(N2CC[C@H](N)C2)c1-c1cc(F)cc(F)c1 [1-82, 4-[(3S)-3-aminopyrrolidin-1-yl]-6-cyano-N-cyclopentyl-5-(3,5-difluorophenyl)pyridine-3-carboxamide]
< 10		Cc1cc(F)cc(-c2cncc(C(=O)NCC3CC3)c2N2CC[C@](C)(N)C2)c1 [1-26, 4-[(3S)-3-amino-3-methylpyrrolidin-1-yl]-N-(cyclopropylmethyl)-5-(3-fluoro-5-methylphenyl)pyridine-3-carboxamide]
< 10		Cc1cccc2[nH]c(-c3cncc(C(=O)N4CCC(C(C)(C)C)C4)c3N3CC[C@](C)(N)C3)nc12 (stereo partly drawn) [2-27, (3S)-1-[3-(3-tert-butylpyrrolidine-1-carbonyl)-5-(4-methyl-1H-1,3-benzodiazol-2-yl)pyridin-4-yl]-3-methylpyrrolidin-3-amine]
10 to 100		C[C@H](NC(=O)c1cnc(C#N)c(-c2cc(F)cc(F)c2)c1N1C[C@H](N)[C@@H](F)C1)C1CC1 (single isomer, unassigned) [1-136]
> 1000		COc1ncc(C(=O)N[C@@H](C)C(F)(F)F)c(N2CC[C@](C)(N)C2)c1Br (single isomer, unassigned) [1-274]
10 to 100		C[C@]1(N)CCN(c2c(C(=O)NC3CCCC3)ccnc2-c2cc(F)cc(F)c2)C1 [3-8, 3-[(3S)-3-amino-3-methylpyrrolidin-1-yl]-N-cyclopentyl-2-(3,5-difluorophenyl)pyridine-4-carboxamide]
< 10		C[C@]1(N)CCN(c2c(C(=O)NC3CCOCC3)cnc(C#N)c2-c2cc(F)cc(F)c2)C1 [1-88, 4-[(3S)-3-amino-3-methylpyrrolidin-1-yl]-6-cyano-5-(3,5-difluorophenyl)-N-(oxan-4-yl)pyridine-3-carboxamide]
10 to 100		CC(C)(NC(=O)c1cncc(-c2cc(F)cc(F)c2)c1N1CC[C@](C)(N)C1)C1CC1 [1-40, 4-[(3S)-3-amino-3-methylpyrrolidin-1-yl]-N-(2-cyclopropylpropan-2-yl)-5-(3,5-difluorophenyl)pyridine-3-carboxamide]
< 10		C[C@H](NC(=O)c1cnc(C#N)c(-c2cc(F)cc(F)c2)c1N1CC[C@@](N)(CF)C1)C1CC1 (single isomer, unassigned) [1-220]
< 10		C[C@H](NC(=O)c1cnc(OC2CC2)c(-c2cc(F)cc(F)c2)c1N1CC[C@](C)(N)C1)C1CC1 [1-191, 4-[(3S)-3-amino-3-methylpyrrolidin-1-yl]-6-cyclopropoxy-N-[(1S)-1-cyclopropylethyl]-5-(3,5-difluorophenyl)pyridine-3-carboxamide]
< 10		COc1ncc(C(=O)N[C@@H](C)C(F)(F)F)c(N2CC[C@](C)(N)C2)c1-c1cc(F)cc(F)c1 [1-140, 4-[(3S)-3-amino-3-methylpyrrolidin-1-yl]-5-(3,5-difluorophenyl)-6-methoxy-N-[(2S)-1,1,1-trifluoropropan-2-yl]pyridine-3-carboxamide]
10 to 100		CC(C)(C)NC(=O)c1cncc(-c2cc(F)cc(F)c2)c1N1CC[C@](C)(N)C1 [1-29, 4-[(3S)-3-amino-3-methylpyrrolidin-1-yl]-N-tert-butyl-5-(3,5-difluorophenyl)pyridine-3-carboxamide]
< 10		C[C@H](NC(=O)c1cnc(C2CC2)c(-c2cc(F)cc(F)c2)c1N1CC[C@](C)(N)C1)C(F)(F)F [1-290, 4-[(3S)-3-amino-3-methylpyrrolidin-1-yl]-6-cyclopropyl-5-(3,5-difluorophenyl)-N-[(2S)-1,1,1-trifluoropropan-2-yl]pyridine-3-carboxamide]
> 1000		COc1ncc(C(=O)N2CCCCC2)c(N2CC[C@H](N)C2)c1-c1cc(F)cc(F)c1 [1-235, (3S)-1-[3-(3,5-difluorophenyl)-2-methoxy-5-(piperidine-1-carbonyl)pyridin-4-yl]pyrrolidin-3-amine]
< 10		C[C@]1(N)CCN(c2c(C(=O)NC(C3CCC3)C(F)(F)F)cncc2-c2cc(F)cc(F)c2)C1 (stereo partly drawn) [1-56, 4-[(3S)-3-amino-3-methylpyrrolidin-1-yl]-N-(1-cyclobutyl-2,2,2-trifluoroethyl)-5-(3,5-difluorophenyl)pyridine-3-carboxamide]

EC50 (Table A) [nM]	EC50 (Table B) [nM]	Structure (SMILES)
> 1000	> 1000	Cc1ncc(C(=O)N[C@@H](C)C2CC2)c(N2CC[C@](C)(N)C2)c1-c1cnn(CC(F)(F)F)c1 [1-155, 4-[(3S)-3-amino-3-methylpyrrolidin-1-yl]-N-[(1S)-1-cyclopropylethyl]-6-methyl-5-[1-(2,2,2-trifluoroethyl)-1H-pyrazol-4-yl]pyridine-3-carboxamide]
< 10		Cc1ncc(C(=O)N[C@@H](C)C2CC2)c(N2CC[C@](C)(N)C2)c1-c1cnn(C)c1 [1-148, 4-[(3S)-3-amino-3-methylpyrrolidin-1-yl]-N-[(1S)-1-cyclopropylethyl]-6-methyl-5-(1-methyl-1H-pyrazol-4-yl)pyridine-3-carboxamide]
100 to 1000		C[C@H](NC(=O)c1cnc(C#N)c(-c2cc(F)cc(F)c2)c1N1CC[C@@](N)(CC(F)F)C1)C1CC1 (single isomer, unassigned) [1-119]
< 10		C[C@]1(N)CCN(c2c(C(=O)N[C@H]3C[C@@H](F)C3)cncc2-c2cc(F)cc(F)c2)C1 [1-59, 4-[(3S)-3-amino-3-methylpyrrolidin-1-yl]-5-(3,5-difluorophenyl)-N-[cis-3-fluorocyclobutyl]pyridine-3-carboxamide]
< 10		N#Cc1ncc(C(=O)NC23CC(C2)C3)c(N2CC[C@H](N)C2)c1-c1cccc(F)c1 [1-65, 4-[(3S)-3-aminopyrrolidin-1-yl]-N-{bicyclo[1.1.1]pentan-1-yl}-6-cyano-5-(3-fluorophenyl)pyridine-3-carboxamide]
< 10		Cc1cccc2[nH]c(-c3cncc(C(=O)N4CCC(C)(C)C4)c3N3CC[C@](C)(N)C3)nc12 [2-19, (3S)-1-[3-(3,3-dimethylpyrrolidine-1-carbonyl)-5-(4-methyl-1H-1,3-benzodiazol-2-yl)pyridin-4-yl]-3-methylpyrrolidin-3-amine]
10 to 100		N[C@@H]1CN(c2c(C(=O)NC34CC(C3)C4)cncc2-c2cc(F)cc(F)c2)C[C@H]1F [1-37, 4-[(3R,4R)-3-amino-4-fluoropyrrolidin-1-yl]-N-{bicyclo[1.1.1]pentan-1-yl}-5-(3,5-difluorophenyl)pyridine-3-carboxamide]
10 to 100		CCNC(=O)c1cncc(-c2nc3c(C)cccc3[nH]2)c1N1CC[C@](C)(N)C1 [2-1, 4-[(3S)-3-amino-3-methylpyrrolidin-1-yl]-N-ethyl-5-(4-methyl-1H-1,3-benzodiazol-2-yl)pyridine-3-carboxamide]
< 10		C[C@H](NC(=O)c1cnc(C#N)c(-c2cnoc2)c1N1CC[C@](C)(N)C1)C1CC1 [1-134, 4-[(3S)-3-amino-3-methylpyrrolidin-1-yl]-6-cyano-N-[(1S)-1-cyclopropylethyl]-5-(1,2-oxazol-4-yl)pyridine-3-carboxamide]
< 10		COc1ncc(C(=O)N[C@@H](C)C(F)(F)F)c(N2CC[C@H](N)C2)c1-c1cc(F)cc(F)c1 [1-151, 4-[(3S)-3-aminopyrrolidin-1-yl]-5-(3,5-difluorophenyl)-6-methoxy-N-[(2S)-1,1,1-trifluoropropan-2-yl]pyridine-3-carboxamide]
< 10		C[C@H](NC(=O)c1cnc(OCC(F)(F)F)c(-c2cc(F)cc(F)c2)c1N1CC[C@](C)(N)C1)C1CC1 [1-190, 4-[(3S)-3-amino-3-methylpyrrolidin-1-yl]-N-[(1S)-1-cyclopropylethyl]-5-(3,5-difluorophenyl)-6-(2,2,2-trifluoroethoxy)pyridine-3-carboxamide]
< 10		CC(CC(F)(F)F)NC(=O)c1cncc(-c2cc(F)cc(F)c2)c1N1CC[C@](C)(N)C1 (stereo partly drawn) [1-60, 4-[(3S)-3-amino-3-methylpyrrolidin-1-yl]-5-(3,5-difluorophenyl)-N-(4,4,4-trifluorobutan-2-yl)pyridine-3-carboxamide]
10 to 100		COCCNC(=O)c1cncc(-c2nc3c(C)cccc3[nH]2)c1N1CC[C@](C)(N)C1 [2-8, 4-[(3S)-3-amino-3-methylpyrrolidin-1-yl]-N-(2-methoxyethyl)-5-(4-methyl-1H-1,3-benzodiazol-2-yl)pyridine-3-carboxamide]
10 to 100		C[C@]1(N)CCN(c2c(C(=O)NCC(F)(F)F)cncc2-c2cc(F)cc(F)c2)C1 [1-28, 4-[(3S)-3-amino-3-methylpyrrolidin-1-yl]-5-(3,5-difluorophenyl)-N-(2,2,2-trifluoroethyl)pyridine-3-carboxamide]
10 to 100		C[C@]1(N)CCN(c2c(C(=O)NC3CC3)cncc2-c2cc(F)cc(F)c2)C1 [1-23, 4-[(3S)-3-amino-3-methylpyrrolidin-1-yl]-N-cyclopropyl-5-(3,5-difluorophenyl)pyridine-3-carboxamide]
10 to 100		Cc1cccc2[nH]c(-c3cncc(C(=O)N4CC(C)(C)C4)c3N3CC[C@](C)(N)C3)nc12 [2-21, (3S)-1-[3-(3,3-dimethylazetidine-1-carbonyl)-5-(4-methyl-1H-1,3-benzodiazol-2-yl)pyridin-4-yl]-3-methylpyrrolidin-3-amine]
< 10		C[C@@H](NC(=O)c1cncc(-c2cc(F)cc(F)c2)c1N1CC[C@](C)(N)C1)C(F)(F)F [1-53, 4-[(3S)-3-amino-3-methylpyrrolidin-1-yl]-5-(3,5-difluorophenyl)-N-[(2R)-1,1,1-trifluoropropan-2-yl]pyridine-3-carboxamide]
